# Reference: ChEMBL document CHEMBL5442219
# How the values were obtained:
# Settings in all cases: Compound concentration 10 µM
# [1] = molecular target: T1, Alpha-2A adrenergic receptor (Homo sapiens) (UniProt P08913)
# T1 sequence (whole entry): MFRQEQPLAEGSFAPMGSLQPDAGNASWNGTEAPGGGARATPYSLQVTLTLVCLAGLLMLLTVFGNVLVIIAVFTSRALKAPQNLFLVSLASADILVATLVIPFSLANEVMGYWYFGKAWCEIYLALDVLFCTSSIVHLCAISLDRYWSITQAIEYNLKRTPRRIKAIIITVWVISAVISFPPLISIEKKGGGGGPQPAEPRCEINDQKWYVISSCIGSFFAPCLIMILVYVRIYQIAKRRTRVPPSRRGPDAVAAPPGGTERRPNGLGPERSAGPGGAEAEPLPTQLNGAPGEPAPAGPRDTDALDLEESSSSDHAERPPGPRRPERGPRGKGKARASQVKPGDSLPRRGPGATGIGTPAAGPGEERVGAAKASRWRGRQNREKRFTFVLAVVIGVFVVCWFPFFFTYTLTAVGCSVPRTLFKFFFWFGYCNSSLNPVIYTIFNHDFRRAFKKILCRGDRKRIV
# Description: PDSP Primary Binding target: ADRA2A - Compounds are tested at 10 uM concentration, plate are incubated at room temperature in the dark for 90 minutes. Reaction are stopped by vacuum filtration onto 0.3% polyethyleneimine soaked filter mats using Filtermate harvester. Scintilation cocktail is then melted onto microwave-dried filters on a hot plate and the radio activity is counted in Microbia counter.
# [2] = molecular target: D(2) dopamine receptor (Homo sapiens) (UniProt P14416)
# Description: PDSP Primary Binding target: DRD2 - Compounds are tested at 10 uM concentration, plate are incubated at room temperature in the dark for 90 minutes. Reaction are stopped by vacuum filtration onto 0.3% polyethyleneimine soaked filter mats using Filtermate harvester. Scintilation cocktail is then melted onto microwave-dried filters on a hot plate and the radio activity is counted in Microbia counter.
# [3] = molecular target: T2, Alpha-1A adrenergic receptor (Homo sapiens) (UniProt P35348)
# T2 sequence (whole entry): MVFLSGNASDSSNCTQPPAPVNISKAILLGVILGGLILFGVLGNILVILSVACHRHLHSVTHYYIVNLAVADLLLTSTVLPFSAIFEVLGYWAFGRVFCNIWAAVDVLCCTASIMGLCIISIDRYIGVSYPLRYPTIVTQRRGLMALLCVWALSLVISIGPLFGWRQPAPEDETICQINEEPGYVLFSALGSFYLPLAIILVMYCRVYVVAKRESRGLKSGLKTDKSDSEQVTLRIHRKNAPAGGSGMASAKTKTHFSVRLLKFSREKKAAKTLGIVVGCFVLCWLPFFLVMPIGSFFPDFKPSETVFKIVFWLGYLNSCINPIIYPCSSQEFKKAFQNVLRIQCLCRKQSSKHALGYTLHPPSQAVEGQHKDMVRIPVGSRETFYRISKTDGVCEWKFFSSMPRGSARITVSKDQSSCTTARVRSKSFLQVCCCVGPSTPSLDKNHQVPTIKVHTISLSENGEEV
# Description: PDSP Primary Binding target: ADRA1A - Compounds are tested at 10 uM concentration, plate are incubated at room temperature in the dark for 90 minutes. Reaction are stopped by vacuum filtration onto 0.3% polyethyleneimine soaked filter mats using Filtermate harvester. Scintilation cocktail is then melted onto microwave-dried filters on a hot plate and the radio activity is counted in Microbia counter.
# [4] = molecular target: Histamine H3 receptor (Homo sapiens) (UniProt Q9Y5N1)
# Description: PDSP Primary Binding target: HRH3 - Compounds are tested at 10 uM concentration, plate are incubated at room temperature in the dark for 90 minutes. Reaction are stopped by vacuum filtration onto 0.3% polyethyleneimine soaked filter mats using Filtermate harvester. Scintilation cocktail is then melted onto microwave-dried filters on a hot plate and the radio activity is counted in Microbia counter.
# [5] = molecular target: Histamine H1 receptor (Homo sapiens) (UniProt P35367)
# Description: PDSP Primary Binding target: HRH1 - Compounds are tested at 10 uM concentration, plate are incubated at room temperature in the dark for 90 minutes. Reaction are stopped by vacuum filtration onto 0.3% polyethyleneimine soaked filter mats using Filtermate harvester. Scintilation cocktail is then melted onto microwave-dried filters on a hot plate and the radio activity is counted in Microbia counter.
# [6] = molecular target: Muscarinic acetylcholine receptor M3 (Homo sapiens) (UniProt P20309)
# Description: PDSP Primary Binding target: CHRM3 - Compounds are tested at 10 uM concentration, plate are incubated at room temperature in the dark for 90 minutes. Reaction are stopped by vacuum filtration onto 0.3% polyethyleneimine soaked filter mats using Filtermate harvester. Scintilation cocktail is then melted onto microwave-dried filters on a hot plate and the radio activity is counted in Microbia counter.
# [7] = molecular target: Sodium-dependent serotonin transporter (Homo sapiens) (UniProt P31645)
# Description: PDSP Primary Binding target: SLC6A4 - Compounds are tested at 10 uM concentration, plate are incubated at room temperature in the dark for 90 minutes. Reaction are stopped by vacuum filtration onto 0.3% polyethyleneimine soaked filter mats using Filtermate harvester. Scintilation cocktail is then melted onto microwave-dried filters on a hot plate and the radio activity is counted in Microbia counter.
# [8] = molecular target: 5-hydroxytryptamine receptor 1B (Homo sapiens) (UniProt P28222)
# Description: PDSP Primary Binding target: HTR1B - Compounds are tested at 10 uM concentration, plate are incubated at room temperature in the dark for 90 minutes. Reaction are stopped by vacuum filtration onto 0.3% polyethyleneimine soaked filter mats using Filtermate harvester. Scintilation cocktail is then melted onto microwave-dried filters on a hot plate and the radio activity is counted in Microbia counter.
# [9] = molecular target: T3, Muscarinic acetylcholine receptor M5 (Homo sapiens) (UniProt P08912)
# T3 sequence (whole entry): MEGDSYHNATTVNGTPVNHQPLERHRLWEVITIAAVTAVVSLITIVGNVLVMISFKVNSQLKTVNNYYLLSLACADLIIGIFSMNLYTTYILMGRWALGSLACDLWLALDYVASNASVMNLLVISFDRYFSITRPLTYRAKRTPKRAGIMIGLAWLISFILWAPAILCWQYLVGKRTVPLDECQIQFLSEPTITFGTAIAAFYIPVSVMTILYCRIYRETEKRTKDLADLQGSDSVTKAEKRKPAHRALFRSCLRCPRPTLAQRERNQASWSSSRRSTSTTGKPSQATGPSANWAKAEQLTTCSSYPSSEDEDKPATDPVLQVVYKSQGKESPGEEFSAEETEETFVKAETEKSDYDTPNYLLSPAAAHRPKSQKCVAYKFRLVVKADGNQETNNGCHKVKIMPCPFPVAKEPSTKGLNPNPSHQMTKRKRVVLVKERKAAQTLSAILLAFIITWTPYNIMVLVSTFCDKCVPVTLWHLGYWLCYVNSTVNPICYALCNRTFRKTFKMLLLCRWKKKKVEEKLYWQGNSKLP
# Description: PDSP Primary Binding target: CHRM5 - Compounds are tested at 10 uM concentration, plate are incubated at room temperature in the dark for 90 minutes. Reaction are stopped by vacuum filtration onto 0.3% polyethyleneimine soaked filter mats using Filtermate harvester. Scintilation cocktail is then melted onto microwave-dried filters on a hot plate and the radio activity is counted in Microbia counter.
# [10] = molecular target: 5-hydroxytryptamine receptor 1E (Homo sapiens) (UniProt P28566)
# Description: PDSP Primary Binding target: HTR1E - Compounds are tested at 10 uM concentration, plate are incubated at room temperature in the dark for 90 minutes. Reaction are stopped by vacuum filtration onto 0.3% polyethyleneimine soaked filter mats using Filtermate harvester. Scintilation cocktail is then melted onto microwave-dried filters on a hot plate and the radio activity is counted in Microbia counter.
# [11] = molecular target: T4, Alpha-1D adrenergic receptor (Homo sapiens) (UniProt P25100)
# T4 sequence (whole entry): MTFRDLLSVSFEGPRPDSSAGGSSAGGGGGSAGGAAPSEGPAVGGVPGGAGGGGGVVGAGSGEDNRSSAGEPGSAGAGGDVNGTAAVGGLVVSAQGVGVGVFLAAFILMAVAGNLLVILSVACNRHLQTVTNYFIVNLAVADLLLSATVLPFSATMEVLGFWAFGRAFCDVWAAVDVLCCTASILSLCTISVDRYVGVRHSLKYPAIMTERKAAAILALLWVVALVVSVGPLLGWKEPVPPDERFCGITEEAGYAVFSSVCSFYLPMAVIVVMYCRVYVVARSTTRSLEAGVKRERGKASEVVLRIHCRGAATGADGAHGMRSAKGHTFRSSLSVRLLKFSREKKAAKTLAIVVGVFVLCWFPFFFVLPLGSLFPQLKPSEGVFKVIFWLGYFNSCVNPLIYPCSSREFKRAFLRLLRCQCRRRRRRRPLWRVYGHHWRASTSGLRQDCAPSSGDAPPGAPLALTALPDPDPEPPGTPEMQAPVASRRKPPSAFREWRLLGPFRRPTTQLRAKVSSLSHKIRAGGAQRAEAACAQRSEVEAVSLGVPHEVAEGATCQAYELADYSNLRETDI
# Description: PDSP Primary Binding target: ADRA1D - Compounds are tested at 10 uM concentration, plate are incubated at room temperature in the dark for 90 minutes. Reaction are stopped by vacuum filtration onto 0.3% polyethyleneimine soaked filter mats using Filtermate harvester. Scintilation cocktail is then melted onto microwave-dried filters on a hot plate and the radio activity is counted in Microbia counter.
# [12] = molecular target: T5, D(4) dopamine receptor (Homo sapiens) (UniProt P21917)
# T5 sequence (whole entry): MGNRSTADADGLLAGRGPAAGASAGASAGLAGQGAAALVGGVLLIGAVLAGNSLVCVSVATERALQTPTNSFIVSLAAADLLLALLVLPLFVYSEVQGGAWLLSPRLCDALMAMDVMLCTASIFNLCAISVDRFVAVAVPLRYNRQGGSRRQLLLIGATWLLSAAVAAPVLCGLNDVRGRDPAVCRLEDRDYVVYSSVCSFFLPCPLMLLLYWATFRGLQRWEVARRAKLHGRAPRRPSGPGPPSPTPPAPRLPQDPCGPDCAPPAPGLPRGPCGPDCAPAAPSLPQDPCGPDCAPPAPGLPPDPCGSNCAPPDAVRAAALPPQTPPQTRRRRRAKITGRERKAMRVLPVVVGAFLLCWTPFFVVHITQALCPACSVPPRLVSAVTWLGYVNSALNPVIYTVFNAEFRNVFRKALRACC
# Description: PDSP Primary Binding target: DRD4 - Compounds are tested at 10 uM concentration, plate are incubated at room temperature in the dark for 90 minutes. Reaction are stopped by vacuum filtration onto 0.3% polyethyleneimine soaked filter mats using Filtermate harvester. Scintilation cocktail is then melted onto microwave-dried filters on a hot plate and the radio activity is counted in Microbia counter.
# [13] = molecular target: Translocator protein (Homo sapiens) (UniProt P30536)
# Chain of Translocator protein (Homo sapiens) (P30536 whole entry): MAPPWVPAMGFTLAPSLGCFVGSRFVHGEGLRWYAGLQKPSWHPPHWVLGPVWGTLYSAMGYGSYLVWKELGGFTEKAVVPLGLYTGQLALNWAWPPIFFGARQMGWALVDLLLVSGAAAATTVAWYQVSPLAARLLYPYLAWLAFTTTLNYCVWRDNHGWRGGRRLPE
# Description: PDSP Primary Binding target: TSPO - Compounds are tested at 10 uM concentration, plate are incubated at room temperature in the dark for 90 minutes. Reaction are stopped by vacuum filtration onto 0.3% polyethyleneimine soaked filter mats using Filtermate harvester. Scintilation cocktail is then melted onto microwave-dried filters on a hot plate and the radio activity is counted in Microbia counter.
# Chain of Histamine H1 receptor (Homo sapiens) (P35367 whole entry): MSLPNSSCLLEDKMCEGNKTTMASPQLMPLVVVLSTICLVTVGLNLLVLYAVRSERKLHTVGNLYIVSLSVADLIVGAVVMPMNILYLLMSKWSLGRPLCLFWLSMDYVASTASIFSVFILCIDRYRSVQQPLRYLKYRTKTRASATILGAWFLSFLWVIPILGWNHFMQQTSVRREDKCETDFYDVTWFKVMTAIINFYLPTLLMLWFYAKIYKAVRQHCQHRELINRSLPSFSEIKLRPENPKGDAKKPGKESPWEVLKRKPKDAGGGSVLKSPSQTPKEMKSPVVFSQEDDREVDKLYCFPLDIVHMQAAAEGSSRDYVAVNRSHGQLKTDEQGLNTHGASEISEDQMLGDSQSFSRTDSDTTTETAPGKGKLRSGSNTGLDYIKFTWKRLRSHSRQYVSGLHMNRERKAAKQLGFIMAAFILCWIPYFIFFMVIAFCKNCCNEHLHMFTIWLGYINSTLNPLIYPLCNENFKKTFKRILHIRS
# Chain of Sodium-dependent serotonin transporter (Homo sapiens) (P31645 whole entry, looked up): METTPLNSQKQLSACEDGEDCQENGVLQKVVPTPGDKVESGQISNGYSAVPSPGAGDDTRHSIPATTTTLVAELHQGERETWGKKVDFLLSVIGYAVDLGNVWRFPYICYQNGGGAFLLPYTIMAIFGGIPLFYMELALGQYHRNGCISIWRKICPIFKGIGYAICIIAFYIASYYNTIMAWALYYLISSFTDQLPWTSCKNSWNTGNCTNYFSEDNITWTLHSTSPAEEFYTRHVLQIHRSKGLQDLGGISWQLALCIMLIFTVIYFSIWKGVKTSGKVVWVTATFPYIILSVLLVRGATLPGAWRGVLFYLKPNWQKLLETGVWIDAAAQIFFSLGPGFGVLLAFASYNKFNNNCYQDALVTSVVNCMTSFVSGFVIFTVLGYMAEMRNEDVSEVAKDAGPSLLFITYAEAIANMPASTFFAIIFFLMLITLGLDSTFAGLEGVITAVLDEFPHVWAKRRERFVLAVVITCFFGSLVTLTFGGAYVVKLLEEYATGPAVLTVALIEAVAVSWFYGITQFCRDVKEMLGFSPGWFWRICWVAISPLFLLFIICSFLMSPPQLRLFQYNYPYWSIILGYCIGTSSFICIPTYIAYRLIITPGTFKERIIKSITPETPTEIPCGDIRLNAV
# Chain of Histamine H3 receptor (Homo sapiens) (Q9Y5N1 whole entry): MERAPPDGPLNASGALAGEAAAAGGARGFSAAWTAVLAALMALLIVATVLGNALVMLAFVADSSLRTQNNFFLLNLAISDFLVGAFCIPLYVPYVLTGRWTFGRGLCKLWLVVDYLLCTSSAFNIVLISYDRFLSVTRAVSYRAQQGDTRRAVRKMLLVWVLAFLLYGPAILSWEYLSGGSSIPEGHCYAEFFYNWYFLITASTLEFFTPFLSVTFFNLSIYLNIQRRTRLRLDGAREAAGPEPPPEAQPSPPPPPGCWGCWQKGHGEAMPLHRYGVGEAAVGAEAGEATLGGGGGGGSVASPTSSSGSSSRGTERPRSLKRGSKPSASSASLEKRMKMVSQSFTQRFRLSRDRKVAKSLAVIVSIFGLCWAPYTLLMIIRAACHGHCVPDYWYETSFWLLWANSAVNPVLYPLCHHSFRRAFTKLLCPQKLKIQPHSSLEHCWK
# Chain of D(2) dopamine receptor (Homo sapiens) (P14416 whole entry): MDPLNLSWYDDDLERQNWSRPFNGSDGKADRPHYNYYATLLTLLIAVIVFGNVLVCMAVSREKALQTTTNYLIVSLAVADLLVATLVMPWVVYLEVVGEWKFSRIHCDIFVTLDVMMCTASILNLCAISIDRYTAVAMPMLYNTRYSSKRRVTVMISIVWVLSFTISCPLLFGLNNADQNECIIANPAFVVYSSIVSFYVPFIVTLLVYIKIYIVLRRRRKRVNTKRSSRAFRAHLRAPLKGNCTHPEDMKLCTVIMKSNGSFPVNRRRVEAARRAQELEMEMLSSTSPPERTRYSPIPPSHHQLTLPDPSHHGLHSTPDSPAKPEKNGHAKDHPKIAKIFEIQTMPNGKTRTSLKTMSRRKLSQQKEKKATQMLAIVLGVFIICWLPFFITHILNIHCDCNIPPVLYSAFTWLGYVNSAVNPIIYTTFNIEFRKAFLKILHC
# Chain of 5-hydroxytryptamine receptor 1E (Homo sapiens) (P28566 whole entry): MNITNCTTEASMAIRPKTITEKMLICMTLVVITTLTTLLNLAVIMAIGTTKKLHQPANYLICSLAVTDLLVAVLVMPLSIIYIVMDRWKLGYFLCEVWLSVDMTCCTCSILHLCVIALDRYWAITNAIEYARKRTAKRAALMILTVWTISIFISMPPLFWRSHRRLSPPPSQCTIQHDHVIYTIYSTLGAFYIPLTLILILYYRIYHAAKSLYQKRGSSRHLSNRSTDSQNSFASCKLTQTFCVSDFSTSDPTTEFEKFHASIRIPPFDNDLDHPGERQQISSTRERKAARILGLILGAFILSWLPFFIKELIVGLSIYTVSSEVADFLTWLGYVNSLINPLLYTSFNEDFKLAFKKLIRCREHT
# Chain of Muscarinic acetylcholine receptor M3 (Homo sapiens) (P20309 whole entry, looked up): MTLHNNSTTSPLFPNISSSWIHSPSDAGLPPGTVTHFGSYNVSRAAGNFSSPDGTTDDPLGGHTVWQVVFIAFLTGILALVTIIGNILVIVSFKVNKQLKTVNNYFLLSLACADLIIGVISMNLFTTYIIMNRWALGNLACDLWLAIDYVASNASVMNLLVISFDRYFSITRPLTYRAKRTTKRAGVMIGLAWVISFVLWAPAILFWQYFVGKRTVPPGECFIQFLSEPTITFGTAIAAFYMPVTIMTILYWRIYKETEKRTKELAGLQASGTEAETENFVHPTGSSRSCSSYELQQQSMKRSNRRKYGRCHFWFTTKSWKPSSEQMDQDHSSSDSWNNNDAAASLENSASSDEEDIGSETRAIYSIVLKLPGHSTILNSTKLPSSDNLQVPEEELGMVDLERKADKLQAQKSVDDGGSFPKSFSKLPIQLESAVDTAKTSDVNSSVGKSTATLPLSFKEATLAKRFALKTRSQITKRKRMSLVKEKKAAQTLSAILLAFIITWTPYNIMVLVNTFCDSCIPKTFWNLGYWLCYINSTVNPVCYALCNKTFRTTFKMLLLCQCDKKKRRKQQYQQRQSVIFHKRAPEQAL
# Chain of 5-hydroxytryptamine receptor 1B (Homo sapiens) (P28222 whole entry): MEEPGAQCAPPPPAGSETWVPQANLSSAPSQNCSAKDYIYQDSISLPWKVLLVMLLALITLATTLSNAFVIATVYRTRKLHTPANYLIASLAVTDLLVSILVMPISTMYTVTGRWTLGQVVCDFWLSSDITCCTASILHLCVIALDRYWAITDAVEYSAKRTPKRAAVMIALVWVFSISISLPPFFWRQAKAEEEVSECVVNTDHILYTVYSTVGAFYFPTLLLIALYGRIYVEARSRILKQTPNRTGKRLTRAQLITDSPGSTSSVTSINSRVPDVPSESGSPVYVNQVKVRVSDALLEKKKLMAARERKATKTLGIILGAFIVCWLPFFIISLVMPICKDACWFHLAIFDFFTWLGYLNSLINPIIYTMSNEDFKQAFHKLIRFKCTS
Compound,inhibition [1] [%],inhibition [2] [%],inhibition [3] [%],inhibition [4] [%],inhibition [5] [%],inhibition [6] [%],inhibition [7] [%],inhibition [8] [%],inhibition [9] [%],inhibition [10] [%],inhibition [11] [%],inhibition [12] [%],inhibition [13] [%]
C[C@@H](N)Cc1c[nH]cn1,8.47,-4.88,8.76,103,8.33,-7.33,6.49,5.1,-5.67,14.9,–,–,–
N#Cc1ccc2[nH]cc(CCCCN3CCN(c4ccc5oc(C(N)=O)cc5c4)CC3)c2c1,70,79.4,95.5,31.9,85.8,12.6,96,56.1,30.6,21.2,75.5,80.5,-4.35
COc1ccc(/C=C/CCCCOc2ccc(C(=O)c3cccc(C(=O)O)c3)cc2CCC(=O)O)cc1,–,28.2,11.7,10.8,18.1,-5.39,11.1,29.9,3.16,8.42,1.82,–,35.5
CNC[C@H](O)c1cccc(O)c1,78.2,-2.53,27.4,13.1,-2.34,-8.03,3.06,15.9,-2.82,23.9,26.6,–,11.8
OC1(c2ccc(Cl)cc2)CCN(Cc2c[nH]c3ccccc23)CC1,76.1,90.2,66.1,–,38.8,-9.56,102,19.3,70.8,–,21.4,66.1,-2.88
COc1cc(-n2cnc3cc(-c4ccc(Cl)cc4)sc3c2=O)ccc1OCCN1CCCC1,70.6,30.2,37.3,88.9,42.2,56.6,85.8,42.5,64.9,–,53.1,32.4,11.9
C[C@H](NC[C@H](O)CP(=O)(O)CC1CCCCC1)c1ccc(Cl)c(Cl)c1,–,10.4,1.74,17.5,9.98,-3.76,-2.56,–,16.6,-8.21,8.86,13.4,–
CCc1ccc(OCc2ccccc2C(=O)Nc2ccc3nc(C)cc(N)c3c2)cc1,42.2,36.2,45.6,–,7.44,11.1,36,46.6,24,9.69,57.8,21.3,54.7
O=c1ccn([C@@H]2O[C@H](COP(=O)(O)OP(=O)(O)O)[C@@H](O)[C@H]2O)c(=O)[nH]1,–,14.8,-6.92,7.28,34.8,2.51,21.1,1.75,-9.39,9.09,–,–,5.14
Cc1cc(C(=O)N2Cc3cnn(C)c3Nc3ccccc32)ccc1CNC(=O)N1CCC[C@H]1C(=S)N1CCCN(C)CC1,13.1,5.64,-5.86,–,24.4,65.2,-2.9,20.7,83.3,4.73,–,–,-9.04
CC(C)NCC(O)COc1ccc(CCOCC2CC2)cc1 (configuration not stated),20.5,3.26,-7.39,28.3,1.05,1.59,-2.29,10.4,0.46,5.21,5.75,–,4.48
COc1ccc(OC(F)(F)F)cc1CN[C@H]1CCCN[C@H]1c1ccccc1,38.4,16.6,31.1,–,92.9,-8.99,38.8,10,–,12.4,15.1,-2.15,17.5
CN1C2CCC1CC(OC(c1ccc(F)cc1)c1ccc(F)cc1)C2 (configuration not stated),–,67.8,98.7,-0.82,–,95.9,15.4,27.7,94.5,14.3,91.5,21,47.8
Oc1ccc2c3c1O[C@H]1c4[nH]c5c(c4C[C@@]4(O)[C@@H](C2)N(CC2CC2)CC[C@]314)C[C@@]1(O)[C@H]2Cc3ccc(O)c4c3[C@@]1(CCN2CC1CC1)[C@H]5O4,6.23,1.13,30.1,6.5,9.21,3.43,-6.45,13.6,-0.25,–,4.88,14.9,21.5
